Laboratory results taken from ChEMBL document CHEMBL1201862, “PubChem BioAssay data set” (2004).
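These data come from cells grown in 96-well plates and exposed to compound for 48 hours at five concentrations. The concentration for 50% growth inhibition is given as GI50.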 Calls of active or inactive are those of the source. No stated cut-off is given here; in the data, active = GI50 up to about 1.1 µM and inactive = higher.

How the values were obtained:
Experiment in all cases: inhibition of tumour cell growth, NCI panel, 48 h
A498 = system: A498
DU-145 = system: DU-145
HOP-92 = system: HOP-92
IGROV-1 = system: IGROV-1
K562 = system: K562
LOX IMVI = system: LOX IMVI
Malme-3M = system: Malme-3M
NCI-H460 = system: NCI-H460
OVCAR-4 = system: OVCAR-4
OVCAR-5 = system: OVCAR-5
PC-3 = system: PC-3
SF-295 = system: SF-295
SF-539 = system: SF-539
SK-MEL-2 = system: SK-MEL-2
SK-MEL-5 = system: SK-MEL-5
SR = system: SR
U-251 = system: U-251
UACC-62 = system: UACC-62
UO-31 = system: UO-31
HCC 2998 = system: HCC 2998

Measured: GI50

O=C(CCN1CCCCC1)c1csc2ccccc12
inactive: A498 > 100 µM | DU-145 > 100 µM | HOP-92 > 100 µM | IGROV-1 > 100 µM | K562 > 100 µM | LOX IMVI > 100 µM | Malme-3M > 100 µM | NCI-H460 > 100 µM | OVCAR-4 > 100 µM | OVCAR-5 > 100 µM | PC-3 > 100 µM | SF-295 > 100 µM | SF-539 > 100 µM | SK-MEL-2 > 100 µM | SK-MEL-5 > 100 µM | SR > 100 µM | U-251 > 100 µM | UACC-62 > 100 µM | UO-31 > 100 µM

CC1=NC2(CCCCC2)N(Cl)C(=O)C1SC#N (stereo unspecified)
inactive: A498 > 100 µM | DU-145 25.2 µM | HCC 2998 20.7 µM | IGROV-1 18.2 µM | K562 9.46 µM | LOX IMVI 10.7 µM | Malme-3M 18.2 µM | NCI-H460 > 10 µM | OVCAR-4 20.8 µM | OVCAR-5 22.8 µM | PC-3 15.8 µM | SF-295 18.7 µM | SF-539 19.5 µM | SK-MEL-2 20 µM | SK-MEL-5 18.2 µM | SR > 100 µM | U-251 19.4 µM | UACC-62 13.4 µM | UO-31 18.8 µM

CCOc1ccc(-n2nnc3c(N)nc(N)nc32)cc1
inactive: A498 > 100 µM | DU-145 > 100 µM | HOP-92 > 100 µM | IGROV-1 > 100 µM | K562 > 100 µM | LOX IMVI > 100 µM | Malme-3M > 100 µM | NCI-H460 > 100 µM | OVCAR-4 > 100 µM | OVCAR-5 > 100 µM | PC-3 > 100 µM | SF-295 > 100 µM | SF-539 > 100 µM | SK-MEL-2 > 100 µM | SK-MEL-5 > 100 µM | SR > 100 µM | U-251 > 100 µM | UACC-62 > 100 µM

O=C(N/N=C/c1ccc([N+](=O)[O-])cc1)c1cccc2nc3ccccc3nc12
inactive: A498 > 100 µM | DU-145 65 µM | HOP-92 > 51.9 µM | IGROV-1 > 100 µM | K562 > 70.3 µM | LOX IMVI > 85.5 µM | Malme-3M > 100 µM | NCI-H460 1.5 µM | OVCAR-4 > 100 µM | OVCAR-5 > 86.1 µM | PC-3 > 75.9 µM | SF-295 78.2 µM | SF-539 > 38.5 µM | SK-MEL-2 > 100 µM | SK-MEL-5 2.07 µM | SR > 39.5 µM | U-251 41.5 µM | UACC-62 > 100 µM | UO-31 > 71.4 µM

Cc1cc(C)nc(NC(=S)Nc2cccc(Cl)c2)c1
inactive: A498 > 47.3 µM | DU-145 > 100 µM | HCC 2998 65.5 µM | IGROV-1 16.1 µM | K562 > 100 µM | LOX IMVI > 100 µM | Malme-3M > 100 µM | NCI-H460 > 45.8 µM | OVCAR-4 > 36.6 µM | OVCAR-5 > 100 µM | PC-3 > 100 µM | SF-295 > 100 µM | SF-539 > 100 µM | SK-MEL-2 > 100 µM | SK-MEL-5 > 10 µM | SR 16.6 µM | U-251 > 100 µM | UACC-62 > 100 µM | UO-31 > 100 µM

O=S(=O)(O)c1ccc2c(/N=N\c3ccc(F)cc3)c(O)c(S(=O)(=O)O)cc2c1
inactive: A498 > 100 µM | DU-145 > 100 µM | HOP-92 > 100 µM | IGROV-1 > 100 µM | K562 > 100 µM | LOX IMVI > 100 µM | Malme-3M > 100 µM | OVCAR-4 > 100 µM | OVCAR-5 > 100 µM | PC-3 > 100 µM | SF-295 > 100 µM | SK-MEL-2 > 100 µM | SK-MEL-5 > 100 µM | SR > 100 µM | U-251 > 100 µM | UACC-62 > 100 µM | UO-31 > 100 µM
